Measured values taken from US8389513B2, “2-amino-5,5-difluoro-5,6-dihydro-4H-[1,3]oxazin-4-yl)-phenyl]-amides” (Hoffmann-La Roche Inc., priority 2009, dated 2013).

Columns and labels:
BACE1 = target: T1, BACE1 (Homo sapiens, UniProt P56817); experiment: Cellular Aβ-lowering assay (Aβ40 ELISA); format: cell-based; conditions: HEK293 cells stably expressing human APP695; Aβ40 in culture supernatant; read-out: BACE1 cell act. Aβ40 IC50
T1 construct: Human HEK293 cells which are stably transfected with a vector expressing a cDNA of the human APP wt gene (APP695); endogenous in cells; host or cells: HEK293 stably transfected with human APP695 wt
T1 sequence (P56817 46-501): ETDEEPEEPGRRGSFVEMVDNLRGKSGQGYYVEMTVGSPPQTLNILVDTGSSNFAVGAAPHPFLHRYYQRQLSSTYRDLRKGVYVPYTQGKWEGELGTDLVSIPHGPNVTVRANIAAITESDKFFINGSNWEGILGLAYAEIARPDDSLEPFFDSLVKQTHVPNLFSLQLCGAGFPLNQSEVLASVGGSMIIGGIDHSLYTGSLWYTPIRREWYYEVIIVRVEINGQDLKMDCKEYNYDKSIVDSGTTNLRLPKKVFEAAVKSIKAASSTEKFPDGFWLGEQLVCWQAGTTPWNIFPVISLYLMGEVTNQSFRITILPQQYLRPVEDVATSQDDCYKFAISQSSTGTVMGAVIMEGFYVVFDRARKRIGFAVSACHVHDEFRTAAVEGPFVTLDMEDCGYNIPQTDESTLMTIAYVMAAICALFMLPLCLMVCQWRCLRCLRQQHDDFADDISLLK
Method: Cellular Aβ-Lowering Assay:
Human HEK293 cells which are stably transfected with a vector expressing a cDNA of the human APP wt gene (APP695) were used to assess the potency of the compounds in a cellular assay. The cells were seeded in 96-well microtiter plates in cell culture medium (Iscove, plus 10% (v/v) fetal bovine serum, glutamine, penicillin/streptomycin) to about 80% confluence and the compounds were added at a 10× concentration in 1/10 volume of medium without FCS containing 8% DMSO (final concentration of DMSO was kept at 0.8% v/v). After 18-20 hrs incubation at 37° C. and 5% CO2 in a humidified incubator the culture supernatant was harvested for the determination of Aβ40 concentrations. […] Subsequently the wells of the microtiter plate were washed extensively with Tris-buffered saline containing 0.05% Tween 20 and the assay was developed with tetramethylbenzidine/H2O2 in citric acid buffer. After stopping the reaction with one volume 1 NH2SO4 the reaction was measured in an ELISA reader at 450 nm wavelength. The concentrations of Aβ in the culture supernatants were calculated from a standard curve obtained with known amounts of pure Aβ peptide.

BACE2 = target: T2, BACE2 (Rattus norvegicus, UniProt Q6IE75); experiment: Assay for BACE inhibition by measuring cellular TMEM27 cleavage; format: cell-based; conditions: INS-TMEM27 cells (INS1e-derived); shed TMEM27 by ELISA; read-out: BACE2 cell act. IC50
T2 construct: endogenous cellular BACE2 in the Ins1e rat cell line; endogenous in cells; host or cells: INS-TMEM27 (INS1e-derived rat cell line with TetOn-inducible full-length hTMEM27)
T2 sequence (Q6IE75 63-514): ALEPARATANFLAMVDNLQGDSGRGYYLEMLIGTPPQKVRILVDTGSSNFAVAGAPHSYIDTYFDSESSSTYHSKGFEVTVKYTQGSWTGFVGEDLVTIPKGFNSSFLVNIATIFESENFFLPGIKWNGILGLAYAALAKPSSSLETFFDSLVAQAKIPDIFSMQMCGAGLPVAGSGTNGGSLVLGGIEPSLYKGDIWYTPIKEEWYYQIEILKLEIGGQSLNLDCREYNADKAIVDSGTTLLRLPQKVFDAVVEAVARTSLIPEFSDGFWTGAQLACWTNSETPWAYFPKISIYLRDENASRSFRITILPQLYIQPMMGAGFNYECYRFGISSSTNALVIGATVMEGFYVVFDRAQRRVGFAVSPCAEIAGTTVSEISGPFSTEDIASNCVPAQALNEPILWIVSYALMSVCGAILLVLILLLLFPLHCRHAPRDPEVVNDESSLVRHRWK
Excerpt: Assay for BACE Inhibition by Measuring Cellular TMEM27 Cleavage:
The assay uses the principle of inhibition of human TMEM27 cleavage by endogenous cellular BACE2 in the Ins1e rat cell line and shedding from the cell surface into the culture medium, followed by detection in an ELISA assay. Inhibition of BACE2 prevents the cleavage and shedding in a dose-dependent manner.
The stable cell line “INS-TMEM27” represents an INS1e-derived cell line with inducible expression (using the TetOn system) of full-length hTMEM27 in a doxycycline-dependent manner. The cells are cultured throughout the experiment in RPMI1640+Glutamax (Invitrogen) Penicillin/Streptomycin, 10% Fetal bovine serum, […] pyruvate, […] beta-mercatptoethanol, 100 micrograms/ml G418 and 100 microgram/ml hygromycin and are grown inadherent culture at 37° C. in a standard CO2 cell culture incubator. INS-TMEM27 cells are seeded in 96-well plates. After 2 days in culture, BACE2 inhibitor is added in a range of concentrations as required by the assay and after a further two hours, doxycycline is added to a final concentration of 500 ng/ml. The cells are incubated for a further 46 hours and the supernatant harvested for detection of shed TMEM27.
An ELISA assay (using a pair of mouse anti-human-TMEM27 antibodies, raised against the extracellular domain of TMEM27) is used for detection of TMEM27 in the culture medium. An EC50 for BACE2 inhibition is calculated using the ELISA readout for each inhibitor concentration with standard curve-fitting software such as XLFit for the Excel spreadsheet program.

Row | Compound | IC50 (BACE1) [nM] | IC50 (BACE2) [nM]
1 | C[C@]1(c2cc(NC(=O)C3CC3(F)F)ccc2F)N=C(N)OCC1(F)F (mixture of isomers) [Example 74, (RS)-2,2-Difluoro-cyclopropanecarboxylic acid [3-((R)-2-amino-5,5-difluoro-4-methyl-5,6-dihydro-4H-[1,3]oxazin-4-yl)-4-fluoro-phenyl]-amide] | 510 | 590
2 | C[C@]1(c2cc(NC(=O)c3ccc(OCF)cn3)ccc2F)N=C(N)OCC1(F)F [Example 42, 5-Fluoromethoxy-pyridine-2-carboxylic acid [3-((R)-2-amino-5,5-difluoro-4-methyl-5,6-dihydro-4H-[1,3]oxazin-4-yl)-4-fluoro-phenyl]-amide] | 29 | 300
3 | CC1(C)OC(N)=N[C@](C)(c2cc(NC(=O)c3ncc(Cl)cc3F)ccc2F)C1(F)F [Example 24, 5-Chloro-3-fluoro-pyridine-2-carboxylic acid [3-((R)-2-amino-5,5-difluoro-4,6,6-trimethyl-5,6-dihydro-4H-[1,3]oxazin-4-yl)-4-fluoro-phenyl]-amide] | 12 | 70
4 | C[C@]1(c2cc(NC(=O)c3ccc(OC(F)F)cn3)ccc2F)N=C(N)OCC1(F)F [Example 41, 5-Difluoromethoxy-pyridine-2-carboxylic acid [3-((R)-2-amino-5,5-difluoro-4-methyl-5,6-dihydro-4H-[1,3]oxazin-4-yl)-4-fluoro-phenyl]-amide] | 11 | 855
5 | C[C@]1(c2cc(NC(=O)c3ncccc3C(F)(F)F)ccc2F)N=C(N)OCC1(F)F [Example 6, 3-Trifluoromethyl-pyridine-2-carboxylic acid [3-((R)-2-amino-5,5-difluoro-4-methyl-5,6-dihydro-4H-[1,3]oxazin-4-yl)-4-fluoro-phenyl]-amide] | 180 | 330
6 | C[C@]1(c2cc(NC(=O)c3ncc(Cl)cn3)ccc2F)N=C(N)OCC1(F)F [Example 12, 5-Chloro-pyrimidine-2-carboxylic acid [3-((R)-2-amino-5,5-difluoro-4-methyl-5,6-dihydro-4H-[1,3]oxazin-4-yl)-4-fluoro-phenyl]-amide] | 23 | 69
7 | C[C@]1(c2cc(NC(=O)c3ncccc3F)ccc2F)N=C(N)OCC1(F)F [Example 10, 3-Fluoro-pyridine-2-carboxylic acid [3-((R)-2-amino-5,5-difluoro-4-methyl-5,6-dihydro-4H-[1,3]oxazin-4-yl)-4-fluoro-phenyl]-amide] | 87 | 52
8 | CC1(C)OC(N)=N[C@](C)(c2cc(NC(=O)c3ccc(C(F)(F)F)cn3)ccc2F)C1(F)F [Example 25, 5-Trifluoromethyl-pyridine-2-carboxylic acid [3-((R)-2-amino-5,5-difluoro-4,6,6-trimethyl-5,6-dihydro-4H-[1,3]oxazin-4-yl)-4-fluoro-phenyl]-amide] | 25 | 2250
9 | Cc1nc(C(=O)Nc2ccc(F)c([C@@]3(C)N=C(N)OCC3(F)F)c2)c(C)o1 [Example 59, 2,5-Dimethyl-oxazole-4-carboxylic acid [3-((R)-2-amino-5,5-difluoro-4-methyl-5,6-dihydro-4H-[1,3]oxazin-4-yl)-4-fluoro-phenyl]-amide] | 43 | 97
10 | C[C@]1(c2cc(NC(=O)c3ccccn3)ccc2F)N=C(N)OCC1(F)F [Example 9, Pyridine-2-carboxylic acid [3-((R)-2-amino-5,5-difluoro-4-methyl-5,6-dihydro-4H-[1,3]oxazin-4-yl)-4-fluoro-phenyl]-amide] |  | 82

More lines, in order of falling IC50 (BACE2), values ahead:

Row | IC50 (BACE1) [nM] | IC50 (BACE2) [nM] | Compound
11 | 140 | 44300 | CC1(C)OC(N)=N[C@](C)(c2cc(NC(=O)c3ccc(OCC(F)(F)F)cn3)ccc2F)C1(F)F [Example 29, 5-(2,2,2-Trifluoro-ethoxy)-pyridine-2-carboxylic acid [3-((R)-2-amino-5,5-difluoro-4,6,6-trimethyl-5,6-dihydro-4H-[1,3]oxazin-4-yl)-4-fluoro-phenyl]-amide]
12 | 43 | 3580 | Cc1cnc(C(=O)Nc2ccc(F)c([C@@]3(C)N=C(N)OC(C)(C)C3(F)F)c2)cn1 [Example 34, 5-Methyl-pyrazine-2-carboxylic acid [3-((R)-2-amino-5,5-difluoro-4,6,6-trimethyl-5,6-dihydro-4H-[1,3]oxazin-4-yl)-4-fluoro-phenyl]-amide]
13 | 1490 | 1010 | C[C@]1(c2cc(NC(=O)C3(C(F)(F)F)CC3)ccc2F)N=C(N)OCC1(F)F [Example 75, 1-Trifluoromethyl-cyclopropanecarboxylic acid [3-((R)-2-amino-5,5-difluoro-4-methyl-5,6-dihydro-4H-[1,3]oxazin-4-yl)-4-fluoro-phenyl]-amide]
14 | 30 | 761 | CC1(C)OC(N)=N[C@](C)(c2cc(NC(=O)c3ccc(OCF)cn3)ccc2F)C1(F)F [Example 26, 5-Fluoromethoxy-pyridine-2-carboxylic acid [3-((R)-2-amino-5,5-difluoro-4,6,6-trimethyl-5,6-dihydro-4H-[1,3]oxazin-4-yl)-4-fluoro-phenyl]-amide]
15 | 622 | 465 | Cc1cn[nH]c1C(=O)Nc1ccc(F)c([C@@]2(C)N=C(N)OCC2(F)F)c1 [Example 66, 4-Methyl-2H-pyrazole-3-carboxylic acid [3-((R)-2-amino-5,5-difluoro-4-methyl-5,6-dihydro-4H-[1,3]oxazin-4-yl)-4-fluoro-phenyl]-amide]
16 | 88 | 367 | Cc1nc(C(=O)Nc2ccc(F)c([C@@]3(C)N=C(N)OCC3(F)F)c2)c(C(F)(F)F)o1 [Example 60, 2-Methyl-5-trifluoromethyl-oxazole-4-carboxylic acid [3-((R)-2-amino-5,5-difluoro-4-methyl-5,6-dihydro-4H-[1,3]oxazin-4-yl)-4-fluoro-phenyl]-amide]
17 | 13 | 349 | C[C@]1(c2cccc(NC(=O)c3ccc(C#N)cn3)c2)N=C(N)OCC1(F)F [Example 53, 5-Cyano-pyridine-2-carboxylic acid [3-((R)-2-amino-5,5-difluoro-4-methyl-5,6-dihydro-4H-[1,3]oxazin-4-yl)-phenyl]-amide]
18 | 20 | 327 | C[C@]1(c2cc(NC(=O)c3ccc(C#N)cn3)ccc2Cl)N=C(N)OCC1(F)F [Example 51, 5-Cyano-pyridine-2-carboxylic acid [3-((R)-2-amino-5,5-difluoro-4-methyl-5,6-dihydro-4H-[1,3]oxazin-4-yl)-4-chloro-phenyl]-amide]
19 | 26 | 151 | C[C@]1(c2cc(NC(=O)c3ccc(C#N)cn3)cc(F)c2F)N=C(N)OCC1(F)F [Example 49, 5-Cyano-pyridine-2-carboxylic acid [3-((R)-2-amino-5,5-difluoro-4-methyl-5,6-dihydro-4H-[1,3]oxazin-4-yl)-4,5-difluoro-phenyl]-amide]
20 |  | 13 | C[C@]1(c2cc(NC(=O)c3ccn(C(F)F)n3)ccc2F)N=C(N)OCC1(F)F [Example 64, 1-Difluoromethyl-1H-pyrazole-3-carboxylic acid [3-((R)-2-amino-5,5-difluoro-4-methyl-5,6-dihydro-4H-[1,3]oxazin-4-yl)-4-fluoro-phenyl]-amide]
